Key:
[1] = molecular target: Acetylcholinesterase (Homo sapiens, UniProt P22303)
Description: (§1) Inhibitory activity against Acetylcholinesterase

[2] = molecular target: T1, Acetylcholinesterase (Torpedo californica, UniProt P04058); set-up: species or system Tetronarce californica
Description: as §1

[3] = molecular target: T1, Acetylcholinesterase
Description: as §1

[4] = molecular target: Acetylcholinesterase (Electrophorus electricus, UniProt O42275)
Sequence of Acetylcholinesterase (Electrophorus electricus, UniProt O42275) (O42275 whole entry): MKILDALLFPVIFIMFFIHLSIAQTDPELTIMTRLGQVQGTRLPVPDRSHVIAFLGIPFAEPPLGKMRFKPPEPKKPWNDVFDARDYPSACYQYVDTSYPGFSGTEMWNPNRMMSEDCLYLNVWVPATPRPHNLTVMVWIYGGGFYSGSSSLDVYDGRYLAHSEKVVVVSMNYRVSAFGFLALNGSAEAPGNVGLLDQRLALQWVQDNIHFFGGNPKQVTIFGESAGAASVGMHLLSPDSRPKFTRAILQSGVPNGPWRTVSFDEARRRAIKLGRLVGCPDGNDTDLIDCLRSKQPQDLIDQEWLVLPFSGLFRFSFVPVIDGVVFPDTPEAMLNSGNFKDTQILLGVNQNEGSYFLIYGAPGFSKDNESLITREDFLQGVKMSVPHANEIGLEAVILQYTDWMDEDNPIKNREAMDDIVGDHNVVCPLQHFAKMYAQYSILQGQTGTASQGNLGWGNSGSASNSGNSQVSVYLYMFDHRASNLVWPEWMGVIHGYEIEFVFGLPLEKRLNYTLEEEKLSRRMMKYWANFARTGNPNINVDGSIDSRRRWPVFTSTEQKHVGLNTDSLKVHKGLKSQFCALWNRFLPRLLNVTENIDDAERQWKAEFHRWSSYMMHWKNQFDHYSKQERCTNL
Description: as §1

Sequence of Acetylcholinesterase (Homo sapiens, UniProt P22303) (P22303 whole entry): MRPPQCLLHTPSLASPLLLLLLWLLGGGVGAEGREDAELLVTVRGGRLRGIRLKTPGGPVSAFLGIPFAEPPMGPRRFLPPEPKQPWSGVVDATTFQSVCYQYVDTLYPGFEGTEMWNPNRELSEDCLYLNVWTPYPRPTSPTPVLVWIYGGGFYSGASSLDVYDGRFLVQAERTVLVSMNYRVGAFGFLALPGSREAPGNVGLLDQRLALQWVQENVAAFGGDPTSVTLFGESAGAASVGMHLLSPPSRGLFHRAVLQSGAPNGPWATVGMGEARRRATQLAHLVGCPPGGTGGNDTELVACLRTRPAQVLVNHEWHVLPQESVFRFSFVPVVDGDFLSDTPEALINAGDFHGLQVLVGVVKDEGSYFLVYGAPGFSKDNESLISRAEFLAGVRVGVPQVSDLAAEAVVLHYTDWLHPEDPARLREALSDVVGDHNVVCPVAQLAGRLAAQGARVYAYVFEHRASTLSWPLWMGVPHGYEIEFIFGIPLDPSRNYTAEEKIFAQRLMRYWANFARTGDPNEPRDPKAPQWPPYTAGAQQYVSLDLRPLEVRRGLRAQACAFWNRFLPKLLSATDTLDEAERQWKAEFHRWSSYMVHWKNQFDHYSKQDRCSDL
T1 sequence (P04058 whole entry): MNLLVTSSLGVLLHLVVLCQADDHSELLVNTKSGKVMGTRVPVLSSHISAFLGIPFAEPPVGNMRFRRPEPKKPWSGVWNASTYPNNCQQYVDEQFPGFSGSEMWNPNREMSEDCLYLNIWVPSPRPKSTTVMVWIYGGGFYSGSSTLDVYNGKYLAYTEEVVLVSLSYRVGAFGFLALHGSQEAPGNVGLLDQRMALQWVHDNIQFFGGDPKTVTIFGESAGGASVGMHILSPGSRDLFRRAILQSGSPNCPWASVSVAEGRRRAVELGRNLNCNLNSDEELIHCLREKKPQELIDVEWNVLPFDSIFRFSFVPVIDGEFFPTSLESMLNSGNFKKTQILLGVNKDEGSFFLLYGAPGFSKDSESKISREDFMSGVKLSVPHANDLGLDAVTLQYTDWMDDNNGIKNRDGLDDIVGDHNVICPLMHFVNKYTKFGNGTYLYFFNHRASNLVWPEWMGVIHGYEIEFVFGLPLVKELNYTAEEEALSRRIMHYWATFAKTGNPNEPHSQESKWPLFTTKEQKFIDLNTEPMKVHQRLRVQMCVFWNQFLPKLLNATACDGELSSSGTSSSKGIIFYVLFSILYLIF

CNC(=O)Oc1ccc2c(c1)[C@]1(C)CC[N+](C)(C)C1N2C (some centres not stated)
IC50 [1]: 0.034 µM

CCCCCC[N+](C)(C)C
IC50 [2]: 816 µM

C[N+]1(C)CCO[C@@](O)(c2ccc(Cl)cc2)C1
IC50 [2]: 8130 µM

C[N+](C)(C)c1cccc(N)c1
IC50 [2]: 192 µM

C[N+]1(C)CCO[C@@](O)(c2ccc([N+](=O)[O-])cc2)C1
IC50 [2]: 5120 µM

C[N+](C)(C)CCCCBr
IC50 [2]: 597 µM

C[N+](C)(C)CCCBr
IC50 [2]: 87.9 µM

CN1CC[C@@]2(C)c3cc(OC(=O)Nc4ccc(Cl)cc4)ccc3N(C)C12 (some centres not stated)
IC50 [1]: 1.8 µM

C[N+]1(C)CCO[C@@](O)(c2ccc(N)cc2)C1
IC50 [2]: 691 µM

C[N+](C)(C)c1cccc([N+](=O)[O-])c1
IC50 [3]: 628 µM

CC(=O)Nc1ccc([C@@]2(O)C[N+](C)(C)CCO2)cc1
IC50 [2]: 2070 µM

CCC(=O)Oc1cc([N+](C)(C)C)ccc1C
IC50 [4]: 3.77 µM

C[N+]1(C)CCO[C@@](O)(c2ccc(C#N)cc2)C1
IC50 [2]: 11600 µM

C=CC[N+](C)(C)C
IC50 [2]: 2920 µM

CN1CC[C@@]2(C)c3cc(OC(=O)NCc4ccccc4)ccc3N(C)C12 (some centres not stated)
IC50 [1]: 0.46 µM

CC(=O)Oc1cccc([N+](C)(C)C)c1C
IC50 [4]: 40.8 µM

COc1ccc(C)c([N+](C)(C)C)c1
IC50 [4]: 345 µM

C[N+](C)(C)CCCCI
IC50 [2]: 471 µM

CCCC(=O)SCC[N+](C)(C)C
IC50 [2]: 126 µM

C[N+]1(C)CCO[C@@](O)(C(F)(F)F)C1
IC50 [2]: 3830 µM

C[C@@]1(O)C[N+](C)(C)CCO1
IC50 [2]: 1730 µM

COc1cc([N+](C)(C)C)ccc1C
IC50 [4]: 122 µM

Cc1c(O)cccc1[N+](C)(C)C
IC50 [4]: 141 µM

CC(C)NC(=O)Oc1ccc2c(c1)[C@]1(C)CCN(C)C1N2C (some centres not stated)
IC50 [1]: 35 µM

CN(C(=O)NCc1ccccc1)C(=O)Oc1ccc2c(c1)[C@]1(C)CCN(C)C1N2C (some centres not stated)
IC50 [1]: 6.3 µM

COc1cccc([N+](C)(C)C)c1C
IC50 [4]: 239 µM

CC(=O)Oc1cc([N+](C)(C)C)ccc1C
IC50 [4]: 0.659 µM

C=CCCCN(C)C
IC50 [2]: 1130 µM

C[N+](C)(C)CCS
IC50 [2]: 440 µM

CCCCNC(=O)Oc1ccc2c(c1)[C@]1(C)CCN(C)C1N2C (some centres not stated)
IC50 [1]: 0.152 µM

CC(=O)Oc1cccc([N+](C)(C)C)c1
IC50 [4]: 3.01 µM

C[N+]1(C)CCO[C@H](O)C1
IC50 [2]: 1760 µM

CCSCC[N+](C)(C)C
IC50 [2]: 1510 µM

CC(=O)Nc1cccc([N+](C)(C)C)c1
IC50 [2]: 1000 µM

CCC(=O)Oc1ccc(C)c([N+](C)(C)C)c1
IC50 [4]: 69.1 µM

CCCC(=O)OCC[N+](C)(C)C
IC50 [2]: 229 µM

CN(C)C(=O)Oc1ccc2c(c1)[C@]1(C)CCN(C)C1N2C (some centres not stated)
IC50 [1]: 0.97 µM

CCN(CC)C(=O)Oc1ccc2c(c1)[C@]1(C)CCN(C)C1N2C (some centres not stated)
IC50 [1]: 40 µM

C[N+](C)(C)CCCl [CHLORMEQUAT CHLORIDE]
IC50 [2]: 2390 µM

CC(=O)CCC[N+](C)(C)C
IC50 [2]: 84.8 µM

CN1CC[C@@]2(C)c3cc(OC(=O)Nc4ccccc4)ccc3N(C)C12 (some centres not stated)
IC50 [1]: 0.35 µM

CCC(=O)Oc1cccc([N+](C)(C)C)c1C
IC50 [4]: 754 µM

COc1cccc([N+](C)(C)C)c1
IC50 [4]: 597 µM

C[N+](C)(C)c1cccc(O)c1
IC50 [4]: 0.973 µM

C[N+](C)(C)CCCCCBr
IC50 [2]: 534 µM

C=CCC[N+](C)(C)C
IC50 [2]: 848 µM

Cc1ccc(O)cc1[N+](C)(C)C
IC50 [4]: 2.83 µM

CC(=O)Oc1ccc(C)c([N+](C)(C)C)c1
IC50 [4]: 5.34 µM

CC(C)(C)[C@@]1(O)C[N+](C)(C)CCO1
IC50 [2]: 3710 µM

Cc1ccc([N+](C)(C)C)cc1O
IC50 [4]: 3.11 µM

CCOCC[N+](C)(C)C
IC50 [2]: 1160 µM

CCC(=O)Oc1cccc([N+](C)(C)C)c1
IC50 [4]: 5.97 µM

Source: ChEMBL document CHEMBL1129057, “Structure-based alignment and comparative molecular field analysis of acetylcholinesterase inhibitors” (J Med Chem, 1996)
